Data set [1] concerns the target T1, Aryl hydrocarbon receptor (Homo sapiens, UniProt P35869).
T1 sequence (P35869 whole entry): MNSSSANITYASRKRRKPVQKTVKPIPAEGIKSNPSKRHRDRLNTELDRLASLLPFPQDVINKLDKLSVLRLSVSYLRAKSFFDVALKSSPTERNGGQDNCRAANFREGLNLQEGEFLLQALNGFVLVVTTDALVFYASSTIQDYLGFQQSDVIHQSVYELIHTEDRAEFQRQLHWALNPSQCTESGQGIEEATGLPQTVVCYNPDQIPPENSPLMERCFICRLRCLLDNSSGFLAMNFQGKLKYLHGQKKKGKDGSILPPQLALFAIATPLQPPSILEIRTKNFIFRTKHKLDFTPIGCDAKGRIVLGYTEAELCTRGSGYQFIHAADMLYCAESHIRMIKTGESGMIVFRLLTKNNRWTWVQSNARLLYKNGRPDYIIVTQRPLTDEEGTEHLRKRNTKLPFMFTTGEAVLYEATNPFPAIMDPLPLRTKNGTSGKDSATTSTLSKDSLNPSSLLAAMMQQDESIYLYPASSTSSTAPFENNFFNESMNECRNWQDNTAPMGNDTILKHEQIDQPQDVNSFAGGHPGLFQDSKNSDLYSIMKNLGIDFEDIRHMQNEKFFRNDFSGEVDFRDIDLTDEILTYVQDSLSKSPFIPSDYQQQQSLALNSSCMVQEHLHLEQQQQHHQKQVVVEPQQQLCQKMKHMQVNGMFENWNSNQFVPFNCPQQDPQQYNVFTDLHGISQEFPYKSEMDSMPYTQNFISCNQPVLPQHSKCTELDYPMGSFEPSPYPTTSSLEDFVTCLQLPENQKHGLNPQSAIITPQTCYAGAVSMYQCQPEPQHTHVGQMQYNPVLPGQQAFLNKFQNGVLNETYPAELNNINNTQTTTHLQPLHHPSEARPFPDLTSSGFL
The data set is described as follows: Antagonist activity at human AhR expressed in Saccharomyces cerevisiae W303-1A (ATCC 208352) transformed with an episomal plasmid containing a minimal CYC1 promoter, with a concatemer of five XRE enhancer sequences, linked to eGFP reporter gene and co-expressing ARNT assessed as inhibition of B[a]P agonist induced XRE-driven eGFP expression by measuring eGFP units at 20 uM after 18 hrs by …. In general terms: A reporter such as luciferase makes a cellular process visible.

Data set [2] has as its target T1, Aryl hydrocarbon receptor. Description: Antagonist activity at human AhR expressed in Saccharomyces cerevisiae W303-1A (ATCC 208352) transformed with an episomal plasmid containing a minimal CYC1 promoter, with a concatemer of five XRE enhancer sequences, linked to eGFP reporter gene and co-expressing ARNT assessed as inhibition of B[a]P agonist induced XRE-driven eGFP expression by measuring eGFP units at 5 uM after 18 hrs by ….

For another data set, the target named is T2, Cytochrome P450 1A1 (Homo sapiens, UniProt P04798).
T2 sequence (P04798 whole entry): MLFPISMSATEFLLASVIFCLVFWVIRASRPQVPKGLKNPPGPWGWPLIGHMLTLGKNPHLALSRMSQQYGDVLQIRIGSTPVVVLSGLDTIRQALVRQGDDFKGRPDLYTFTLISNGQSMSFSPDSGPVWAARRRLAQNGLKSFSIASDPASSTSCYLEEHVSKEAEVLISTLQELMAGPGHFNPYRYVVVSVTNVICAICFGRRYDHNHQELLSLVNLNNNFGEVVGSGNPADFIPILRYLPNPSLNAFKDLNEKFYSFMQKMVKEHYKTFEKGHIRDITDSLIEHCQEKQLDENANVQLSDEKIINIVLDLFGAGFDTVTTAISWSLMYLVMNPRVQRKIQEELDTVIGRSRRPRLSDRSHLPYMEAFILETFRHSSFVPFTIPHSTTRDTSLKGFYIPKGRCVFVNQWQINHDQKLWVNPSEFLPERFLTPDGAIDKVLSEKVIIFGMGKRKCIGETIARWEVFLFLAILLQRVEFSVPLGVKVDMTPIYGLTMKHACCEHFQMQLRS
Description: Inhibition of human CYP1A1 bound to yeast microsomal membrane using 7-ethoxyresorufin as substrate after 10 mins by fluorescence assay.

In data set [3] the target is T3, Cytochrome P450 1B1 (Homo sapiens, UniProt Q16678).
T3 sequence (Q16678 whole entry): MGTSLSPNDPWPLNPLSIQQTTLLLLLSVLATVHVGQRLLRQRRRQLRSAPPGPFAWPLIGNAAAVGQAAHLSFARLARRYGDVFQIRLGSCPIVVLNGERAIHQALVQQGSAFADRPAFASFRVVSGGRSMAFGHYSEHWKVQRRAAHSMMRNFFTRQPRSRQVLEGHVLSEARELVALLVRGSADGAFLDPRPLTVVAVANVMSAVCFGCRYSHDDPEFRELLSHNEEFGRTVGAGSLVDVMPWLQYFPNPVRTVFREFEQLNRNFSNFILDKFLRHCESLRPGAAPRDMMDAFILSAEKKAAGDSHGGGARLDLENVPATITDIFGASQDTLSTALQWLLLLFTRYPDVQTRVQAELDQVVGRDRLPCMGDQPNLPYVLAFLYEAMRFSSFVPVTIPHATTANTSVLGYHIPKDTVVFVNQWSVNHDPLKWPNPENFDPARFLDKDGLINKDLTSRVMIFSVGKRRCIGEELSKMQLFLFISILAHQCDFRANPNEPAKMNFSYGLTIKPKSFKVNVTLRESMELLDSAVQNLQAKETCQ
Description: Inhibition of human CYP1B1 bound to yeast microsomal membrane using 7-ethoxyresorufin as substrate after 10 mins by fluorescence assay.

The target in another data set is Cytochrome P450 2C9 (Homo sapiens, UniProt P11712). The data set is described as follows: Inhibition of human CYP2C9 bound to yeast microsomal membrane using 3-cyano-7-ethoxycoumarin as substrate after 10 mins by fluorescence assay. Format: ADME.
Chain of Cytochrome P450 2C9 (P11712 whole entry): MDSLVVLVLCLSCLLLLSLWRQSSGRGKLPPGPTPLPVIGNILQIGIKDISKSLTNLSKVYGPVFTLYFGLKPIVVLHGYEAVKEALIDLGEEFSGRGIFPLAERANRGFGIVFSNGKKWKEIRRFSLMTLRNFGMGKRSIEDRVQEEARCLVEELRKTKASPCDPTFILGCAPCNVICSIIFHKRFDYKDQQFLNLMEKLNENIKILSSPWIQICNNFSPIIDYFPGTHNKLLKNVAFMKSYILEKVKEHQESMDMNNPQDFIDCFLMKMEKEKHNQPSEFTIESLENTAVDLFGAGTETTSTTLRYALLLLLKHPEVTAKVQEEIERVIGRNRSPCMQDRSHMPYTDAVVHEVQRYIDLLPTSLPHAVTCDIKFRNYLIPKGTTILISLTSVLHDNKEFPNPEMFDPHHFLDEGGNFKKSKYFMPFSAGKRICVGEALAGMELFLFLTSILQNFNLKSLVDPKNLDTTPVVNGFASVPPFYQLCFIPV
In the next data set the target is Cytochrome P450 2C19 (Homo sapiens, UniProt P33261). Description: Inhibition of human CYP2C19 bound to yeast microsomal membrane using 3-cyano-7-ethoxycoumarin as substrate after 10 mins by fluorescence assay. Format: ADME.
Chain of Cytochrome P450 2C19 (P33261 whole entry): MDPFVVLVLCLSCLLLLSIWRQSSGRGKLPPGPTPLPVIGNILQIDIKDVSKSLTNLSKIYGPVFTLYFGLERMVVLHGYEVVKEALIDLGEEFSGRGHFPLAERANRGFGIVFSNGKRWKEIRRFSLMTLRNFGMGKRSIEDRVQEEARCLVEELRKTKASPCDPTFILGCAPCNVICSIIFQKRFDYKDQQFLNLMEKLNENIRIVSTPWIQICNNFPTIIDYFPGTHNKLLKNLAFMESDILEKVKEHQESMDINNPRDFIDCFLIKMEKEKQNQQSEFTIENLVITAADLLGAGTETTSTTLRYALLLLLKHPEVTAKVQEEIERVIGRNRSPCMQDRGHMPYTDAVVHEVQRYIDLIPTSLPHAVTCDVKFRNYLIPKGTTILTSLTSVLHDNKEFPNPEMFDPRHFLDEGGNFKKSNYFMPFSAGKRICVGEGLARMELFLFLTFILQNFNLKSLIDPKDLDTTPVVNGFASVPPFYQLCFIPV
The target of another data set is Cytochrome P450 3A4 (Homo sapiens, UniProt P08684). The data set is described as follows: Inhibition of human CYP3A4 bound to yeast microsomal membrane using dibenzylfluorescein as substrate after 10 mins by fluorescence assay. Format: ADME.
Chain of Cytochrome P450 3A4 (P08684 whole entry): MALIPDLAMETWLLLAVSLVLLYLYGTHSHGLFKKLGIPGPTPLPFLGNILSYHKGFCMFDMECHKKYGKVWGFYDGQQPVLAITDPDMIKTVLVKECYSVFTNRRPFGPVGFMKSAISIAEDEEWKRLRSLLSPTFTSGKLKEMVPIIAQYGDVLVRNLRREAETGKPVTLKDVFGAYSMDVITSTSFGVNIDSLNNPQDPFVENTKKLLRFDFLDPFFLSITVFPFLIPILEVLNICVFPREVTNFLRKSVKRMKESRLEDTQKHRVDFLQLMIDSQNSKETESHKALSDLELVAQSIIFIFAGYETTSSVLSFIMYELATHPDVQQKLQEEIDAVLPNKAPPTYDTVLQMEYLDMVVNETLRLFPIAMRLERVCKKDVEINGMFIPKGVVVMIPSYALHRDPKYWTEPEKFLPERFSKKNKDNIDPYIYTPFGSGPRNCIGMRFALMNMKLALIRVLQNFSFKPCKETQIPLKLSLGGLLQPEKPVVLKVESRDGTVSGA
The target in data set [4] is T3, Cytochrome P450 1B1. The data set is described as follows: Inhibition of human CYP1B1 expressed in HEK293 cells using fluorogenic 7-ethoxyresorufin as substrate preincubated for 30 mins followed by substrate addition measured for 60 mins by fluorescence assay. Format: cell-based.
The target in data set [5] is T1, Aryl hydrocarbon receptor. Description: Antagonist activity at human AhR expressed in Saccharomyces cerevisiae W303-1A (ATCC 208352) transformed with an episomal plasmid containing a minimal CYC1 promoter, with a concatemer of five XRE enhancer sequences, linked to eGFP reporter gene and co-expressing ARNT assessed as inhibition of B[a]P agonist induced XRE-driven eGFP expression after 18 hrs by fluorescence assay. The conditions noted are these: for inhibition (INH): human, 18 h.

Data set [6] is filed under the species Homo sapiens. Description: Selectivity ratio of IC50 for human CYP2D6 bound to yeast microsomal membrane to IC50 for human CYP1B1 bound to yeast microsomal membrane.
For data set [7], the species on record is Homo sapiens. Description: Selectivity ratio of IC50 for human CYP3A4 bound to yeast microsomal membrane to IC50 for human CYP1B1 bound to yeast microsomal membrane.
Data set [8] can be described thus: Selectivity ratio of IC50 for human CYP2D6 expressed in HEK293 cells to IC50 for human CYP1A1 expressed in HEK293 cells.
Data set [9] can be described thus: Selectivity ratio of IC50 for human CYP2C19 expressed in HEK293 cells to IC50 for human CYP1A1 expressed in HEK293 cells.
Data set [10] is described as follows: Selectivity ratio of IC50 for human CYP2D6 expressed in HEK293 cells to IC50 for human CYP1A2 expressed in HEK293 cells.
A short description of data set [11]: Selectivity ratio of IC50 for human CYP3A4 expressed in HEK293 cells to IC50 for human CYP1A2 expressed in HEK293 cells.

Consider three molecules from ChEMBL document CHEMBL4052762, “Synthesis and biological evaluation of pyrrole-based chalcones as CYP1 enzyme inhibitors, for possible prevention of cancer and overcoming cisplatin resistance” (Bioorg Med Chem Lett, 2017).

Structures are written as SMILES.

`O=C(/C=C/c1ccc(OC(F)(F)F)cc1)c1ccc[nH]1`: the Activity in [1] and in data set [2] was 955 U in each case. The IC50 – broadly, the concentration that inhibits the measured activity by half – is more than 20 µM at Cytochrome P450 1A1; more than 20000 nM at Cytochrome P450 1B1 [3]; more than 20 µM on Cytochrome P450 2C9; more than 20 µM on Cytochrome P450 2C19; more than 20 µM at Cytochrome P450 3A4; more than 20000 nM against Cytochrome P450 1B1 [4].
For the molecule `COc1ccccc1/C=C/C(=O)c1ccc[nH]1`, the figures for the Activity in [1] and in [2] were 120 U and 220 U, respectively. In addition, the 50% inhibitory concentration (IC50) was 0.9 µM at Cytochrome P450 1A1; 900 nM against Cytochrome P450 1B1 [3]; more than 20 µM on Cytochrome P450 2C9; more than 20 µM against Cytochrome P450 2C19; more than 20 µM against Cytochrome P450 3A4; 1200 nM at Cytochrome P450 1B1 [4]. Also, in [5], the concentration for half-maximal inhibition (IC50) stood at 1.5 µM. Besides, the “inhibition (INH)” value in [5] is given as “Dose-dependent effect”. The Ratio IC50 (in the data set listed under Homo sapiens [6]; in the data set listed under Homo sapiens [7]; in data set [8]; in data set [9]; in data set [10]; in data set [11]) was more than 20 in each case.
In the case of `O=C(/C=C/c1ccccc1Cl)c1ccc[nH]1`, the Activity in data set [1] worked out at 285 U; in data set [2], 770 U. For the same molecule, the IC50 was 9.1 µM at Cytochrome P450 1A1; 200 nM against Cytochrome P450 1B1 [3]; more than 20 µM against Cytochrome P450 2C9; more than 20 µM on Cytochrome P450 2C19; more than 20 µM against Cytochrome P450 3A4; 250 nM on Cytochrome P450 1B1 [4]. Moreover, the IC50 in data set [5] was found to be 7.6 µM. Also, the “inhibition (INH)” value in data set [5] is “Dose-dependent effect”. The Ratio IC50 (in the data set listed under Homo sapiens [6]; in the data set listed under Homo sapiens [7]; in [8]; in data set [9]; in data set [10]; in [11]) was more than 20 in each case.
